Data on 5 compounds can be found in US20250257055A1, “TERTIARY AMIDE DERIVATIVES SUBSTITUTED WITH 4-MEMBERED RING STRUCTURE” (Sumitomo Pharma Co., Ltd., priority 2024, published 2025).

For orientation: AUC means the area under the concentration-time curve, a measure of exposure. Read a low AUC as less exposure. The clearance is the volume of plasma or blood freed of the substance per unit of time. Usually half-life stands for how long it takes for the measured level to halve. Low readings indicate fast loss, high ones slow loss. One may read the Cmax as the highest concentration seen after dosing. The IC50 is the concentration at which inhibition is half-maximal. The term T/C denotes the result in the treated group divided by that in the control group, in per cent.

Data set [1] in a line: Pharmacokinetic study in mice. The class given is in vivo. The settings on record: for AUC / clearance / half-life / Vd / Cmax: female, BALB/c (BALB/cAnN CrlCrlj), mouse, plasma; for Vd: read-out: Vdss. The method, then: The test compound was administered to 7-week-old female BALB/c (BALB/cAnN CrlCrlj) mice intravenously (dosage: 1 mg/kg) in a 50% PEG solution (0.01 mol/L HCl) or orally (dosage: 10 mg/kg) in a 0.5% methylcellulose aqueous solution, and blood was collected at the following times:
Intravenous administration: 5 min, 15 min, 30 min, 1 hr, 2 hr, 4 hr, 6 hr, and 24 hr after administration
Oral administration: 15 min, 30 min, 1 hr, 2 hr, 4 hr, 6 hr, and 24 hr after administration
The collected blood was centrifuged at 3000 rpm×10 min using a refrigerated centrifuge set at 4° C., and the obtained plasma was measured by LC-MS. A calibration curve was prepared from the value (peak ratio) obtained by dividing the peak area of the test substance by the peak area of the internal standard substance in MS and the concentration of the plasma calibration curve sample. The concentration in the sample was calculated from the peak ratio and the calibration curve of each sample.

Data set [2] has as its system G-401 cells. Description: Cell proliferation inhibition experiment using G-401 cells. The settings on record: Homo sapiens, 72 h, cultured for 3 days, CellTiter-Glo. The format is cell-based. In a few lines: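 Malignant rhabdoid tumor-derived cells, grown in McCoy's 5A with 10% FBS, were seeded at 500 cells/well and dosed one day later (final DMSO 0.1%). After 3 days of culture at 37° C, viability was read by CellTiter-Glo luminescence.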

Data set [3] addresses recombinant p300 (Homo sapiens (Human), UniProt Q09472). Description: HAT activity inhibition experiment (SensoLyte HAT(p300) Assay Kit). The class given is biochemical. Conditions: recombinant p300, histone H3 peptide, acetyl CoA. A digest of the protocol:
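Recombinant human p300 preincubated with compound 10 min at room temperature, then acetyl-CoA and histone H3 peptide added and reacted 30 min at 37 °C. After stop, developer added for 30 min at room temperature in the dark; fluorescence read at Ex 389/Em 513 nm.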

In data set [4] the test system is G-401 xenograft. Description: Drug efficacy evaluation by oral administration using G-401 xenograft model mice. The settings on record: for antitumor effect (in words): G-401 xenograft model, oral administration; for T/C: oral twice a day. The class given is in vivo. The method, then:
G-401 cells (ATCC) were intradermally transplanted into 4-7-week-old BALB/cAnNCrj-nu/nu mice (CAnN.Cg-Foxn1/CrlCrlj, Jackson Laboratory Japan) at 5×10^5 cells/mouse. After confirming the engraftment of G-401 cells 10-40 days after transplantation, the test compound suspended in a solvent such as 0.5% methylcellulose solution was orally administered twice a day at a dose of 1-100 mg/kg. The tumor volume was measured over time from the start of administration, and the effect of tumor volume reduction by administration of the test compound was evaluated. The tumor volume can be calculated from the following equation using the minor axis and major axis of the tumor measured with an electronic caliper (Mitutoyo).
A control administration group administered with only a solvent such as 0.5% methylcellulose solution and a test compound administration group were compared, and the antitumor effect was evaluated by calculating T/C from the following equation.

Chain of recombinant p300 (Q09472 whole entry): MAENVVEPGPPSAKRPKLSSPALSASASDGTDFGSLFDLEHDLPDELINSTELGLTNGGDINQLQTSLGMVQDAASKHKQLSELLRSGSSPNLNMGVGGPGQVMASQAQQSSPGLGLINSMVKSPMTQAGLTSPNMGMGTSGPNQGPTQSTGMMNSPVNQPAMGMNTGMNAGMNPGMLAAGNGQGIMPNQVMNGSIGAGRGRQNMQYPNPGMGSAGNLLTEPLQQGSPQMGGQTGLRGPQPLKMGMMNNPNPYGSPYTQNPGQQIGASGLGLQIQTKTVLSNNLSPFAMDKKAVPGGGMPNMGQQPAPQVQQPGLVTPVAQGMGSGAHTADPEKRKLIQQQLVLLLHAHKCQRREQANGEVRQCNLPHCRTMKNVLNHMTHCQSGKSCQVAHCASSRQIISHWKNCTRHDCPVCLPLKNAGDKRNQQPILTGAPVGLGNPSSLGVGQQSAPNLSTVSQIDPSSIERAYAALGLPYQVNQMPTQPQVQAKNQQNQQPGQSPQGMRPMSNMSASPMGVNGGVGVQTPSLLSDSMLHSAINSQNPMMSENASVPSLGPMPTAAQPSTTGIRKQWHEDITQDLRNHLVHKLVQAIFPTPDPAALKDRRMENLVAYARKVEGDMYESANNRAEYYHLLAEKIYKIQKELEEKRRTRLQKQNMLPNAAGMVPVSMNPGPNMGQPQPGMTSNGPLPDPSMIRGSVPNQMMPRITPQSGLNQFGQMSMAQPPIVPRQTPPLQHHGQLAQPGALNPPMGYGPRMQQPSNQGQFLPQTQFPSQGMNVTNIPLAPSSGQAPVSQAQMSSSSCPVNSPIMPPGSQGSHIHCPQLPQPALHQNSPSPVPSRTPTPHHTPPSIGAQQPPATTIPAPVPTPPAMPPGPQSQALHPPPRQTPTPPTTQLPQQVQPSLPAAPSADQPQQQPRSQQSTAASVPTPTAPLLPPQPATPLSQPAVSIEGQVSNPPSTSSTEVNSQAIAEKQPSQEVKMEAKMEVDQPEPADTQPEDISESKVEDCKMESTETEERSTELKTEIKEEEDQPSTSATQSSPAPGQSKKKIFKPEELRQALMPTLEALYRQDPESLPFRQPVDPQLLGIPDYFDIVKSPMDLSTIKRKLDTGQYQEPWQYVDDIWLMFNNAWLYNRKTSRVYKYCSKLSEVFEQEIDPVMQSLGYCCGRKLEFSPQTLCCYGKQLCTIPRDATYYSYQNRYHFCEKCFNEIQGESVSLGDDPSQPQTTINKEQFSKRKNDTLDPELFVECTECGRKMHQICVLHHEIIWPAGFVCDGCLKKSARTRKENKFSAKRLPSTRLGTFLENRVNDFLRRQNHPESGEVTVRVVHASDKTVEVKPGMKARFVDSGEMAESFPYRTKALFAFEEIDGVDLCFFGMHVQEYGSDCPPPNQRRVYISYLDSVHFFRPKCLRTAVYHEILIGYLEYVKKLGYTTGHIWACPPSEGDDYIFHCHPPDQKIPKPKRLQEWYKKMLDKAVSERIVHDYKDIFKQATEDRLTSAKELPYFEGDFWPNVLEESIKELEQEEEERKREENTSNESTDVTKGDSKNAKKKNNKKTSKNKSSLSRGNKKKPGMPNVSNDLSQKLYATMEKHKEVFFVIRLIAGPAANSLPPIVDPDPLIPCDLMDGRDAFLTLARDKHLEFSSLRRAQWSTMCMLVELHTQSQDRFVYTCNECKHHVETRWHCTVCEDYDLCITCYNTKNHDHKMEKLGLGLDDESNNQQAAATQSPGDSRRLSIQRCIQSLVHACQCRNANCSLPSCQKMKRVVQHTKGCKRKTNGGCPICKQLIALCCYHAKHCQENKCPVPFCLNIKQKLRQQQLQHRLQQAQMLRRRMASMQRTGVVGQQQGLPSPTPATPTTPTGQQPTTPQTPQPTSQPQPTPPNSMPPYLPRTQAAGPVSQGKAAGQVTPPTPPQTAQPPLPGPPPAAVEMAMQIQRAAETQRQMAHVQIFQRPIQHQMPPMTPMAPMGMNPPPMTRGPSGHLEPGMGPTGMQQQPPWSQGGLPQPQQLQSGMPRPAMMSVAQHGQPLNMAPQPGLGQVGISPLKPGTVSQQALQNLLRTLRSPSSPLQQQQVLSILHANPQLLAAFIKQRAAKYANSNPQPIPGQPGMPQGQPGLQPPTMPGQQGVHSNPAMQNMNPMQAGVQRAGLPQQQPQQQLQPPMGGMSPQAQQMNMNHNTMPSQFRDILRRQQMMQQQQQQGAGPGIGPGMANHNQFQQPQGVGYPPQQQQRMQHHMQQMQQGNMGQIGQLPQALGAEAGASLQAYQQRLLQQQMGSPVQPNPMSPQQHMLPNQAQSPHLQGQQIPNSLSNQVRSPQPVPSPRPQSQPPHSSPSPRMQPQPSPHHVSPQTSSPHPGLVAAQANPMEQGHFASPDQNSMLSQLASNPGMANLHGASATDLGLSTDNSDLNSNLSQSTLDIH

On to `CN1CC(N(Cc2ccc(F)cc2)C(=O)CN2C(=O)N[C@]3(C[C@@H](F)c4cc(-c5cnn(C)c5)ccc43)C2=O)(C(F)(F)F)C1` [Example 10, 2-[(1′S,3′R)-3′-fluoro-5′-(1-methyl-1H-pyrazol-4-yl)-2,5-dioxo-2′,3′-dihydrospiro[imidazolidine-4,1′-inden]-1-yl]-N-[(4-fluorophenyl)methyl]-N-[1-methyl-3-(trifluoromethyl)azetidin-3-yl]acetamide], for which, in data set [1] (intravenous, 1 mg/kg), the exposure (AUC) was found to be 491 ng·h/mL, the clearance was found to be 33.5 mL/min/kg, the half-life was 1.16 h and the Vd came to 1.8 L/kg. For the same compound, in data set [1] (oral, 10 mg/kg), the AUC was 3480 ng·h/mL, the highest level (Cmax) was 3240 ng/mL and the BA turned out to be 70.8%. Further, inhibition in data set [2] was half-maximal at 10 nM (IC50). Besides, the IC50 in data set [3] amounted to 0.4 nM. Further, the “antitumor effect (in words)” value in data set [4] is “strong antitumor effects”. This compound showed a T/C in data set [4] (3 mg/kg, 21 days) of 53%. In data set [4] (10 mg/kg, 21 days), this compound yielded a T/C of 102%.
`CN1CC(N(Cc2ccc(F)cn2)C(=O)CN2C(=O)N[C@]3(C[C@@H](F)c4cc(-c5cnn(C6COC6)c5)ccc43)C2=O)(C(F)(F)F)C1` [Example 24, 2-{(1′S,3′R)-3′-fluoro-5′-[1-(oxetan-3-yl)-1H-pyrazol-4-yl]-2,5-dioxo-2′,3′-dihydrospiro[imidazolidine-4,1′-inden]-1-yl}-N-[(5-fluoropyridin-2-yl)methyl]-N-[1-methyl-3-(trifluoromethyl)azetidin-3-yl]acetamide]: in data set [1] (intravenous, 1 mg/kg), the area under the curve (AUC) came to 313 ng·h/mL, the clearance is 53 mL/min/kg, the half-life was 1.15 h and the Vd turned out to be 2.1 L/kg. In data set [1] (oral, 10 mg/kg), this compound showed an area under the curve (AUC) of 1470 ng·h/mL, a Cmax of 1470 ng/mL and a BA of 47.0%. Further, the IC50 in data set [2] was 36 nM. For the same compound, the IC50 in data set [3] worked out at 9.8 nM.
For the compound `O=C1N[C@]2(C[C@@H](F)c3cc(-c4cnn(C5CN(C6COC6)C5)c4)ccc32)C(=O)N1CC(=O)N(Cc1ccc(F)cn1)C1(C(F)(F)F)COC1` [Example 7, 2-[(1′S,3′R)-3′-fluoro-5′-{1-[1-(oxetan-3-yl)azetidin-3-yl]-1H-pyrazol-4-yl}-2,5-dioxo-2′,3′-dihydrospiro[imidazolidine-4,1′-inden]-1-yl]-N-[(5-fluoropyridin-2-yl)methyl]-N-[3-(trifluoromethyl)oxetan-3-yl]acetamide], in data set [1] (intravenous, 1 mg/kg), the AUC came to 819 ng·h/mL, the clearance was 19.9 mL/min/kg, the half-life was 1.41 h and the Vd amounted to 1.3 L/kg. In data set [1] (oral, 10 mg/kg), this compound gave an AUC of 8240 ng·h/mL, a Cmax of 6140 ng/mL and a BA of 100.6%. Besides, 44 nM corresponded to half-maximal inhibition in data set [2] (IC50). For the same compound, the half-maximal inhibitory concentration (IC50) in data set [3] stood at 0.9 nM. In data set [4], the “antitumor effect (in words)” value is listed as “strong antitumor effects”. The compound further showed a T/C in data set [4] (10 mg/kg, 34 days) of 31%. This compound also displayed a T/C in data set [4] (30 mg/kg, 34 days) of 80%.
Consider `CN1CC(N(Cc2ccc(F)cn2)C(=O)CN2C(=O)N[C@]3(C[C@@H](F)c4cc(-c5cnn(C)c5)ccc43)C2=O)(C(F)(F)F)C1` [Example 20, 2-[(1′S,3′R)-3′-fluoro-5′-(1-methyl-1H-pyrazol-4-yl)-2,5-dioxo-2′,3′-dihydrospiro[imidazolidine-4,1′-inden]-1-yl]-N-[(5-fluoropyridin-2-yl)methyl]-N-[1-methyl-3-(trifluoromethyl)azetidin-3-yl]acetamide], for which, in data set [1] (intravenous, 1 mg/kg), the AUC stood at 528 ng·h/mL, the clearance was found to be 31.1 mL/min/kg, the half-life was 1.34 h and the Vd was 1.6 L/kg. In data set [1] (oral, 10 mg/kg), this compound registered an AUC of 1520 ng·h/mL, a Cmax of 1340 ng/mL and a BA of 28.8%. For the same compound, the IC50 in data set [2] turned out to be 36 nM. In addition, the IC50 in data set [3] was 1.7 nM. Besides, the “antitumor effect (in words)” value in data set [4] is on record as “strong antitumor effects”. In data set [4] (20 mg/kg, 21 days), this compound displayed a T/C of 80%. In data set [4] (30 mg/kg, 21 days), this compound showed a T/C of 89%.
Turning to `O=C1N[C@]2(C[C@@H](F)c3cc(-c4cnn(C5CCN(C6COC6)CC5)c4)ccc32)C(=O)N1CC(=O)N(Cc1ccc(F)cn1)C1(C(F)(F)F)COC1` [Example 23, 2-[(1′S,3′R)-3′-fluoro-5′-{1-[1-(oxetan-3-yl)piperidin-4-yl]-1H-pyrazol-4-yl}-2,5-dioxo-2′,3′-dihydrospiro[imidazolidine-4,1′-inden]-1-yl]-N-[(5-fluoropyridin-2-yl)methyl]-N-[3-(trifluoromethyl)oxetan-3-yl]acetamide], in data set [1] (intravenous, 1 mg/kg), the AUC is 1690 ng·h/mL, the clearance was 9.8 mL/min/kg, the half-life was 4.1 h and the Vd stood at 1.8 L/kg. In data set [1] (oral, 10 mg/kg), this compound gave an AUC of 8400 ng·h/mL, a Cmax of 8140 ng/mL and a BA of 49.7%. Also, the midpoint of inhibition in data set [2], the IC50, lay at 82 nM. For the same compound, the IC50 in data set [3] is 9 nM. Moreover, the “antitumor effect (in words)” value in data set [4] is on record as “strong antitumor effects”. This compound also showed a T/C in data set [4] (20 mg/kg, 21 days) of 81%.
